Experimental data reported in ChEMBL document CHEMBL3044635, “Effect of propiconazole and difenoconazole on the control of anthracnose of chilli fruits caused by Colletotrichum capsici” (Crop Prot, 2006).
In brackets after ≈: the same amount, converted by molar mass.

Legend:
Colletotrichum truncatum [1] = assay: Fungicidal activity against Colletotrichum capsici infected chilli plant assessed as percent disease index at 0.05% applied as spray on day 10 post inoculation and twice every 20 days measured on day 155 post sowing in green house conditions (reference value: 62.5 to 68.6%); type: functional
Colletotrichum truncatum [2] = assay: Fungicidal activity against Colletotrichum capsici assessed as mycelial biomass at 0.5 ug/ml incubated 16 hr photoperiod for 20 days (reference value: 675 mg); type: functional
Colletotrichum truncatum [3] = assay: Fungicidal activity against Colletotrichum capsici infected chilli plant assessed as fruit length at 0.025% applied as spray on day 10 post inoculation and twice every 20 days measured on day 155 post sowing in green house conditions (reference value: 6.8 to 7 cm); type: functional
Colletotrichum truncatum [4] = assay: Fungicidal activity against Colletotrichum capsici infected chilli plant assessed as percent disease index at 0.025% applied as spray on day 10 post inoculation and twice every 20 days measured on day 155 post sowing in field conditions (reference value: 51 to 56.5%); type: functional
Colletotrichum truncatum [5] = assay: Fungicidal activity against Colletotrichum capsici infected chilli plant assessed as fruit mass measured per pot at 0.05% applied as spray on day 10 post inoculation and twice every 20 days measured on day 155 post sowing in green house conditions (reference value: 85.3 to 94.5 g); type: functional
Colletotrichum truncatum [6] = assay: Fungicidal activity against Colletotrichum capsici assessed as inhibition of mycelial growth; type: functional; settings: Colletotrichum truncatum; read-out: ED50 (the source's name)
Colletotrichum truncatum [7] = assay: Fungicidal activity against Colletotrichum capsici infected chilli plant assessed as fruit length measured per plot at 0.025% applied as spray on day 10 post inoculation and twice every 20 days measured on day 155 post sowing in field conditions (reference value: 8 to 8.7 cm); type: functional
Colletotrichum truncatum [8] = assay: Fungicidal activity against Colletotrichum capsici assessed as spore germination at 50 ug/ml after 48 to 96 hr (reference value: 70.2 CFU); type: functional
Colletotrichum truncatum [9] = assay: Fungicidal activity against Colletotrichum capsici assessed as spore germination at 25 ug/ml after 48 to 96 hr (reference value: 70.2 CFU); type: functional
Colletotrichum truncatum [10] = assay: Fungicidal activity against Colletotrichum capsici assessed as inhibition of spore germination at 0.1 ug/ml after 48 to 96 hr relative to control; type: functional
Colletotrichum truncatum [11] = assay: Fungicidal activity against Colletotrichum capsici assessed as sporulation at 10 ug/ml incubated 16 hr photoperiod for 20 days by haemocytometer (reference value: 0.081 x 10^6 ml'-1); type: functional
Colletotrichum truncatum [12] = assay: Fungicidal activity against Colletotrichum capsici assessed as mycelial biomass at 5 ug/ml incubated 16 hr photoperiod for 20 days (reference value: 675 mg); type: functional
Colletotrichum truncatum [13] = assay: Fungicidal activity against Colletotrichum capsici assessed as reduction of pectin trans-eliminase production at 1 ug/ml incubated for 10 days measured up to 120 min by Ostwald-Fenske viscometric analysis (reference value: 38.5%); type: functional; set-up: scale not given: the % may be the effect or the level left
Colletotrichum truncatum [14] = assay: Fungicidal activity against Colletotrichum capsici assessed as linear growth at 25 ug/ml incubated 16 hr photoperiod for 20 days (reference value: 90 mm); type: functional
Colletotrichum truncatum [15] = assay: Fungicidal activity against Colletotrichum capsici assessed as spore germination at 0.5 ug/ml after 48 to 96 hr (reference value: 70.2 CFU); type: functional
Colletotrichum truncatum [16] = assay: Fungicidal activity against Colletotrichum capsici assessed as mycelial biomass at 50 ug/ml incubated 16 hr photoperiod for 20 days (reference value: 675 mg); type: functional
Colletotrichum truncatum [17] = assay: Fungicidal activity against Colletotrichum capsici assessed as sporulation at 50 ug/ml incubated 16 hr photoperiod for 20 days by haemocytometer (reference value: 0.081 x 10^6 ml'-1); type: functional
Colletotrichum truncatum [18] = assay: Fungicidal activity against Colletotrichum capsici assessed as sporulation at 25 ug/ml incubated 16 hr photoperiod for 20 days by haemocytometer (reference value: 0.081 x 10^6 ml'-1); type: functional
Colletotrichum truncatum [19] = assay: Fungicidal activity against Colletotrichum capsici infected chilli plant assessed as fruit yield measured per plot at 0.05% applied as spray on day 10 post inoculation and twice every 20 days measured on day 155 post sowing in field conditions (reference value: 8.25 to 9.3 kg); type: functional
Colletotrichum truncatum [20] = assay: Fungicidal activity against Colletotrichum capsici assessed as mycelial biomass at 25 ug/ml incubated 16 hr photoperiod for 20 days (reference value: 675 mg); type: functional
Capsicum annuum = assay: Phytotoxicity in Capsicum annuum (pepper) at 0.1% applied as spray; type: organism-based; settings: in vivo, other
Colletotrichum truncatum [21] = assay: Fungicidal activity against Colletotrichum capsici assessed as linear growth at 10 ug/ml incubated 16 hr photoperiod for 20 days (reference value: 90 mm); type: functional
Colletotrichum truncatum [22] = assay: Fungicidal activity against Colletotrichum capsici assessed as spore germination at 10 ug/ml after 48 to 96 hr (reference value: 70.2 CFU); type: functional
Colletotrichum truncatum [23] = assay: Fungicidal activity against Colletotrichum capsici infected chilli plant assessed as fruit length at 0.05% applied as spray on day 10 post inoculation and twice every 20 days measured on day 155 post sowing in green house conditions (reference value: 6.8 to 7 cm); type: functional
Colletotrichum truncatum [24] = assay: Fungicidal activity against Colletotrichum capsici assessed as linear growth at 5 ug/ml incubated 16 hr photoperiod for 20 days (reference value: 90 mm); type: functional
Colletotrichum truncatum [25] = assay: Fungicidal activity against Colletotrichum capsici assessed as sporulation at 0.1 ug/ml incubated 16 hr photoperiod for 20 days by haemocytometer (reference value: 0.081 x 10^6 ml'-1); type: functional
Colletotrichum truncatum [26] = assay: Fungicidal activity against Colletotrichum capsici assessed as reduction of polygalacturonase production at 1 ug/ml incubated for 10 days measured up to 120 min by Ostwald-Fenske viscometric analysis (reference value: 45.3%); type: functional; set-up: scale not given: the % may be the effect or the level left
Colletotrichum truncatum [27] = assay: Fungicidal activity against Colletotrichum capsici assessed as linear growth at 0.1 ug/ml incubated 16 hr photoperiod for 20 days (reference value: 90 mm); type: functional
Colletotrichum truncatum [28] = assay: Fungicidal activity against Colletotrichum capsici assessed as mycelial biomass at 1 ug/ml incubated 16 hr photoperiod for 20 days (reference value: 675 mg); type: functional
Colletotrichum truncatum [29] = assay: Fungicidal activity against Colletotrichum capsici assessed as mycelial biomass at 0.1 ug/ml incubated 16 hr photoperiod for 20 days (reference value: 675 mg); type: functional
Colletotrichum truncatum [30] = assay: Fungicidal activity against Colletotrichum capsici assessed as sporulation at 0.5 ug/ml incubated 16 hr photoperiod for 20 days by haemocytometer (reference value: 0.081 x 10^6 ml'-1); type: functional
Colletotrichum truncatum [31] = assay: Fungicidal activity against Colletotrichum capsici infected chilli plant assessed as fruit mass measured per pot at 0.025% applied as spray on day 10 post inoculation and twice every 20 days measured on day 155 post sowing in green house conditions (reference value: 85.3 to 94.5 g); type: functional
Colletotrichum truncatum [32] = assay: Fungicidal activity against Colletotrichum capsici assessed as spore germination at 1 ug/ml after 48 to 96 hr (reference value: 70.2 CFU); type: functional
Colletotrichum truncatum [33] = assay: Fungicidal activity against Colletotrichum capsici infected chilli plant assessed as fruit yield measured per plot at 0.025% applied as spray on day 10 post inoculation and twice every 20 days measured on day 155 post sowing in field conditions (reference value: 8.25 to 9.3 kg); type: functional
Colletotrichum truncatum [34] = assay: Fungicidal activity against Colletotrichum capsici assessed as sporulation at 1 ug/ml incubated 16 hr photoperiod for 20 days by haemocytometer (reference value: 0.081 x 10^6 ml'-1); type: functional

| Structure (SMILES) | PDI (Colletotrichum truncatum [1]) [%] | Activity (Colletotrichum truncatum [2]) [mg] | Activity (Colletotrichum truncatum [3]) [cm] | PDI (Colletotrichum truncatum [4]) [%] | Crop_yield (Colletotrichum truncatum [5]) [g] | EC50 (Colletotrichum truncatum [6]) [mg/L] | Activity (Colletotrichum truncatum [7]) [cm] | CFU (Colletotrichum truncatum [8]) | CFU (Colletotrichum truncatum [9]) | inhibition at 0.1 µg/mL (Colletotrichum truncatum [10]) [%] | Activity (Colletotrichum truncatum [11]) [×10⁶ /ml] | Activity (Colletotrichum truncatum [12]) [mg] | Activity (Colletotrichum truncatum [13]) [%] | Activity (Colletotrichum truncatum [14]) [mm] | CFU (Colletotrichum truncatum [15]) | Activity (Colletotrichum truncatum [16]) [mg] | Activity (Colletotrichum truncatum [17]) [×10⁶ /ml] | Activity (Colletotrichum truncatum [18]) [×10⁶ /ml] | Crop_yield (Colletotrichum truncatum [19]) [kg] | Activity (Colletotrichum truncatum [20]) [mg] | other results |
| --- | --- | --- | --- | --- | --- | --- | --- | --- | --- | --- | --- | --- | --- | --- | --- | --- | --- | --- | --- | --- | --- |
| CC1COC(Cn2cncn2)(c2ccc(Oc3ccc(Cl)cc3)cc2Cl)O1 (stereo not given) [DIFENOCONAZOLE] | 22.2 | 350 | 7 | 33 | 140.5 | 0.15 (≈ 0.369 µM) | 8.2 | 0 | 0 | 40 | 0 | 118 | 15.6 | 9 | 22.4 | 0 | 0 | 0 | 12.34 | 0 | Activity (Capsicum annuum): Toxic; Activity (Colletotrichum truncatum [21]): 18.5 mm; CFU (Colletotrichum truncatum [22]): 0; Activity (Colletotrichum truncatum [23]): 7.5 cm; Activity (Colletotrichum truncatum [24]): 27.4 mm; Activity (Colletotrichum truncatum [25]): 3.25 ×10⁶ /ml; Activity (Colletotrichum truncatum [26]): 12%; Activity (Colletotrichum truncatum [27]): 73.5 mm; Activity (Colletotrichum truncatum [28]): 243 mg; Activity (Colletotrichum truncatum [29]): 465 mg; Activity (Colletotrichum truncatum [30]): 2.25 ×10⁶ /ml; Crop_yield (Colletotrichum truncatum [31]): 100.6 g; CFU (Colletotrichum truncatum [32]): 7.8; Crop_yield (Colletotrichum truncatum [33]): 9.1 kg; Activity (Colletotrichum truncatum [34]): 1.02 ×10⁶ /ml |
| CCCC1COC(Cn2cncn2)(c2ccc(Cl)cc2Cl)O1 (stereo not given) [PROPICONAZOLE] | 25.7 | 240 | 7.1 | 30.6 | 130 | 0.19 (≈ 0.555 µM) | 8.5 | 0 | 0 | 62 | 0 | 53 | 12 | 9 | 15.5 | 0 | 0 | 0 | 13.1 | 0 | Activity (Capsicum annuum): Non-toxic; Activity (Colletotrichum truncatum [21]): 9 mm; CFU (Colletotrichum truncatum [22]): 0; Activity (Colletotrichum truncatum [23]): 7.8 cm; Activity (Colletotrichum truncatum [24]): 12.61 mm; Activity (Colletotrichum truncatum [25]): 2.83 ×10⁶ /ml; Activity (Colletotrichum truncatum [26]): 9.2%; Activity (Colletotrichum truncatum [27]): 55.3 mm; Activity (Colletotrichum truncatum [28]): 129 mg; Activity (Colletotrichum truncatum [29]): 410 mg; Activity (Colletotrichum truncatum [30]): 1.3 ×10⁶ /ml; Crop_yield (Colletotrichum truncatum [31]): 112.8 g; CFU (Colletotrichum truncatum [32]): 3.3; Crop_yield (Colletotrichum truncatum [33]): 9.86 kg; Activity (Colletotrichum truncatum [34]): 0.33 ×10⁶ /ml |
